Results on 22 molecules are retold here after patent publication US20230257351A1, “SUBSTITUTED N-[…] HAVING P2X4 RECEPTOR ANTAGONISTIC ACTIVITY” (Bayer Aktiengesellschaft, priority 2020, published 2023).

The IC50 is the concentration that inhibits the measured activity by half.

The target in this experiment is T1, human P2X4 (Homo sapiens, UniProt Q99571).
T1 construct: expressed in transfected cells
T1 sequence (Q99571 1-388): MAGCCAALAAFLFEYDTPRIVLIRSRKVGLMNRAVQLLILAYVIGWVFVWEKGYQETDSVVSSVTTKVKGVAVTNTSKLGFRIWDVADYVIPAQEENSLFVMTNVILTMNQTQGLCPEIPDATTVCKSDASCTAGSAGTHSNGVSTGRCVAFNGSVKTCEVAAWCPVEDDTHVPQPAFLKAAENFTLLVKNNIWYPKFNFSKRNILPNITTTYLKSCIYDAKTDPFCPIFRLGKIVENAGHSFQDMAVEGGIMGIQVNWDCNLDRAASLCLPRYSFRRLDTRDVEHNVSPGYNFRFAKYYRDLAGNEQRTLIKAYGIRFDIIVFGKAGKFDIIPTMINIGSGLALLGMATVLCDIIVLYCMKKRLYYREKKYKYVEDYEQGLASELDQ
Kind of experiment: Human P2X4 HEK Cell FLIPR Assay. The format is cell-based. The conditions noted are these: HEK293 stably expressing human P2X4, agonist Bz-ATP 3 μM (EC80); for IC50: read-out: Human P2X4 HEK Cells (FLIPR Assay) avg IC50. The method, then: Compounds were tested on a HEK293 cell line stably expressing human P2X4. Cells were cultured on poly-D-lysine-coated 384-well plates at a density of 15,000 cells/well and incubated overnight at 37° C., 5% CO2. P2X4 function was assessed by measuring intracellular calcium fluxes caused by Benzoylbenzoyl-ATP (Bz-ATP) using the calcium-chelating dye Fluo8-AM (Molecular Devices) with the Fluorescent Imaging Plate Reader Tetra (FLIPR^Tetra; Molecular Devices CA). On the day of the assay, the medium was removed and the cells were incubated for 30 min at 37° C. and 5% CO2 in 30 μl of dye buffer (Hank's balanced salt solution, 10 mM HEPES, 1.8 mM CaCl2, 1 mM MgCl2, 2 mM probenecid, 5 mM D-glucose monohydrate, 5 μM Fluo8-AM, pH=7.4). Compounds diluted in probenecid buffer (Hank's balanced salt solution, 10 mM HEPES, 1.8 mM CaCl2, 1 mM MgCl2, 2 mM probenecid, 5 mM D-glucose monohydrate, pH=7.4) at ten concentrations ranging from 25 μM to 1 nM (final concentration) were dispensed and incubated for 30 min at room temperature. […] The final assay volume was 50 μl and final DMSO concentration was 0.5%.
The fluorescence intensity reflecting intracellular calcium changes was recorded before and after Bz-ATP addition, at an excitation and emission wavelengths of 470-495 nm and 515-575 nm respectively.
The compounds were tested in triplicates and fluorescence intensity raw data normalized to the agonist control and fitted to the four-parameter logistic equation:
Y=Bottom+(Top−Bottom)/(1+10^((Log IC50−X)*HillSlope))
Assay plate acceptance was based on the signal window (S/B)[…] and the reference compound pIC50 within ±3σ the mean of historic pIC50 of the compound. Failure to meet two of the three criteria determined exclusion of the plate's results.

Take `CC(=O)N(c1cc(NC(=O)Cc2cccc(F)c2Cl)ccn1)c1ccc(C(F)(F)F)cc1F` [Example 119, N-{4-[2-(2-chloro-3-fluorophenyl)acetamido]pyridin-2-yl}-N-[2-fluoro-4-(trifluoromethyl)phenyl]acetamide]: the “Human P2X4 HEK Cells (FLIPR Assay) avg Efficacy” value (“Human P2X4 HEK Cells” for short) was determined as 101% and the IC50 was 0.941 µM.
Taken in the same sequence, the figures for `CC(=O)N(c1cc(NC(=O)Cc2c(Cl)cccc2Cl)ccn1)c1ccc(C(F)(F)F)cc1F` [Example 120, N-{4-[2-(2,6-dichlorophenyl)acetamido]pyridin-2-yl}-N-[2-fluoro-4-(trifluoromethyl)phenyl]acetamide] were 102% and 0.871 µM.
For `CC(=O)N(c1cc(NC(=O)Cc2cccc(C(F)(F)F)c2Cl)ccn1)c1cccc(F)c1F` [Example 121, N-(4-{2-[2-chloro-3-(trifluoromethyl)phenyl]acetamido}pyridin-2-yl)-N-(2,3-difluorophenyl)acetamide] the same measures were 97% and 0.843 µM.
For `CC(=O)N(c1cc(NC(=O)Cc2ccccc2Cl)ccn1)c1cccc(F)c1F` [Example 122, N-{4-[2-(2-chlorophenyl)acetamido]pyridin-2-yl}-N-(2,3-difluorophenyl)acetamide], the “Human P2X4 HEK Cells” value was 95% and the IC50 is 0.357 µM.
Taken in the same sequence, the figures for `CC(=O)N(c1cc(NC(=O)Cc2cccc(F)c2Cl)ccn1)c1cccc(F)c1F` [Example 124, N-{4-[2-(2-chloro-3-fluorophenyl)acetamido]pyridin-2-yl}-N-(2,3-difluorophenyl)acetamide] were 94% and 0.289 µM.
As to `CC(=O)N(c1cc(NC(=O)Cc2c(Cl)cccc2Cl)ccn1)c1cccc(F)c1F` [Example 125, N-{4-[2-(2,6-dichlorophenyl)acetamido]pyridin-2-yl}-N-(2,3-difluorophenyl)acetamide], the “Human P2X4 HEK Cells” value came to 95% and the IC50 came to 0.577 µM.
For `CC(=O)N(c1cccc(Cl)c1)c1cc(NC(=O)Cc2c(Cl)cccc2Cl)ccn1` [Example 134, N-(3-chlorophenyl)-N-{4-[2-(2,6-dichlorophenyl)acetamido]pyridin-2-yl}acetamide] the same measures were 99% and 0.504 µM.
Taken in the same sequence, the figures for `CC(=O)N(c1cc(F)cc(Cl)c1)c1cc(NC(=O)Cc2ccccc2Cl)ccn1` [Example 136, N-(3-chloro-5-fluorophenyl)-N-{4-[2-(2-chlorophenyl)acetamido]pyridin-2-yl}acetamide] were 94% and 0.31 µM.
For `CC(=O)N(c1cc(F)cc(Cl)c1)c1cc(NC(=O)Cc2ccc(F)cc2Cl)ccn1` [Example 137, N-(3-chloro-5-fluorophenyl)-N-{4-[2-(2-chloro-4-fluorophenyl)acetamido]pyridin-2-yl)acetamide] the same measures were 104% and 0.29 µM.
On to `CC(=O)N(c1cc(F)cc(Cl)c1)c1cc(NC(=O)Cc2cccc(F)c2Cl)ccn1` [Example 138, N-(3-chloro-5-fluorophenyl)-N-{4-[2-(2-chloro-3-fluorophenyl)acetamido]pyridin-2-yl}acetamide], for which the “Human P2X4 HEK Cells” value is 96% and the IC50 is 0.316 µM.
For `CC(=O)N(c1cc(F)cc(Cl)c1)c1cc(NC(=O)Cc2c(Cl)cccc2Cl)ccn1` [Example 139, N-(3-chloro-5-fluorophenyl)-N-{4-[2-(2,6-dichlorophenyl)acetamido]pyridin-2-yl}acetamide] the same measures were 100% and 0.356 µM.
For `CC(=O)N(c1cc(F)cc(Cl)c1)c1cc(NC(=O)Cc2c(F)cccc2Cl)ccn1` [Example 140, N-(3-chloro-5-fluorophenyl)-N-{4-[2-(2-chloro-6-fluorophenyl)acetamido]pyridin-2-yl)acetamide] the same measures were 105% and 0.271 µM.
Taken in the same sequence, the figures for `CC(=O)N(c1cc(F)cc(C#N)c1)c1cc(NC(=O)Cc2ccccc2Cl)ccn1` [Example 145, N-{4-[2-(2-Chlorphenyl)acetamido]pyridin-2-yl}-N-(3-cyan-5-fluorphenyl)acetamide] were 98% and 0.234 µM.
Turning to `CC(=O)N(c1cc(F)cc(C#N)c1)c1cc(NC(=O)Cc2c(Cl)cccc2Cl)ccn1` [Example 146, N-(3-Cyan-5-fluorphenyl)-N-{4-[2-(2,6-dichlorphenyl)acetamido]pyridin-2-yl}acetamide], the “Human P2X4 HEK Cells” value amounted to 103% and the IC50 is 0.337 µM.
With `CC(=O)N(c1cc(F)cc(C#N)c1)c1cc(NC(=O)Cc2cccc(F)c2Cl)ccn1` [Example 147, N-{4-[2-(2-Chlor-3-fluorphenyl)acetamido]pyridin-2-yl}-N-(3-cyan-5-fluorphenyl)acetamide], the “Human P2X4 HEK Cells” value is reported as 97% and the IC50 is 0.384 µM.
Taken in the same sequence, the figures for `CC(=O)N(c1cc(F)cc(C#N)c1)c1cc(NC(=O)Cc2c(F)cccc2Cl)ccn1` [Example 148, N-{4-[2-(2-Chlor-6-fluorphenyl)acetamido]pyridin-2-yl}-N-(3-cyan-5-fluorphenyl)acetamide] were 96% and 0.436 µM.
For `CC(=O)N(c1cc(F)cc(C#N)c1)c1cc(NC(=O)Cc2ccc(F)cc2Cl)ccn1` [Example 149, N-{4-[2-(2-Chlor-4-fluorphenyl)acetamido]pyridin-2-yl}-N-(3-cyan-5-fluorphenyl)acetamide] the same measures were 100% and 0.45 µM.
For the molecule `CC(=O)N(c1cc(NC(=O)Cc2ccccc2Cl)ccn1)c1ccc(F)cc1Cl` [Example 150, N-(2-Chlor-4-fluorphenyl)-N-{4-[2-(2-chlorphenyl)acetamido]pyridin-2-yl}acetamide], the “Human P2X4 HEK Cells” value is listed as 102% and the IC50 worked out at 0.297 µM.
Taken in the same sequence, the figures for `CC(=O)N(c1cc(NC(=O)Cc2ccc(F)cc2Cl)ccn1)c1ccc(F)cc1Cl` [Example 151, N-(2-Chlor-4-fluorphenyl)-N-{4-[2-(2-chlor-4-fluorphenyl)acetamido]pyridin-2-yl}acetamide] were 104% and 0.355 µM.
For `CC(=O)N(c1cc(NC(=O)Cc2c(Cl)cccc2Cl)ccn1)c1ccc(F)cc1Cl` [Example 152, N-(2-Chlor-4-fluorphenyl)-N-{4-[2-(2,6-dichlorphenyl)acetamido]pyridin-2-yl}acetamide] the same measures were 104% and 0.441 µM.
Taken in the same sequence, the figures for `CC(=O)N(c1cc(NC(=O)Cc2c(F)cccc2Cl)ccn1)c1ccc(F)cc1Cl` [Example 153, N-(2-Chlor-4-fluorphenyl)-N-{4-[2-(2-chlor-6-fluorphenyl)acetamido]pyridin-2-yl}acetamide] were 102% and 0.476 µM.
As for `CC(=O)N(c1cc(NC(=O)Cc2cccc(F)c2Cl)ccn1)c1ccc(F)cc1Cl` [Example 154, N-(2-Chlor-4-fluorphenyl)-N-{4-[2-(2-chlor-3-fluorphenyl)acetamido]pyridin-2-yl}acetamide], the “Human P2X4 HEK Cells” value is listed as 101% and the IC50 came to 0.511 µM.
